The values that follow come from ChEMBL document CHEMBL5465560, “Selectivity Literature for EUbOPEN Chemogenomic Library” (2024).

The target in test [1] is T1, Phosphorylase b kinase gamma catalytic chain, liver/testis isoform (Homo sapiens) (UniProt P15735).
T1 sequence (whole entry): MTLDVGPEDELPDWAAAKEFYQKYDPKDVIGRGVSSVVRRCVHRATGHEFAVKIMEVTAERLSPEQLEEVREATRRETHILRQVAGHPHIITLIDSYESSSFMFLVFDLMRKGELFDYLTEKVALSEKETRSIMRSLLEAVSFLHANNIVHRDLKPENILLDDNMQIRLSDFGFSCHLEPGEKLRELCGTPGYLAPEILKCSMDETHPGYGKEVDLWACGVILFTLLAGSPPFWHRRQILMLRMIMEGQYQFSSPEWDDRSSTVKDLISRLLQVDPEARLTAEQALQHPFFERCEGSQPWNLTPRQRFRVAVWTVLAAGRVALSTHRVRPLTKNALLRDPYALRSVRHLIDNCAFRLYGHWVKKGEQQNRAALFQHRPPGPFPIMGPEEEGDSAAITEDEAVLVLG
Kind of test: Selectivity interaction (KinomeScan (DiscoverX)) EUB0001079a PHKG2. The settings on record: at 1 µM.

Test [2] has as its target Aurora kinase B (Homo sapiens, UniProt Q96GD4). Briefly: Selectivity interaction (KinomeScan (DiscoverX)) EUB0001049a AURKB. The following applies: at 1 µM.
For test [3], the target named is T2, Cyclin-dependent kinase 11A (Homo sapiens) (UniProt Q9UQ88).
T2 sequence (whole entry): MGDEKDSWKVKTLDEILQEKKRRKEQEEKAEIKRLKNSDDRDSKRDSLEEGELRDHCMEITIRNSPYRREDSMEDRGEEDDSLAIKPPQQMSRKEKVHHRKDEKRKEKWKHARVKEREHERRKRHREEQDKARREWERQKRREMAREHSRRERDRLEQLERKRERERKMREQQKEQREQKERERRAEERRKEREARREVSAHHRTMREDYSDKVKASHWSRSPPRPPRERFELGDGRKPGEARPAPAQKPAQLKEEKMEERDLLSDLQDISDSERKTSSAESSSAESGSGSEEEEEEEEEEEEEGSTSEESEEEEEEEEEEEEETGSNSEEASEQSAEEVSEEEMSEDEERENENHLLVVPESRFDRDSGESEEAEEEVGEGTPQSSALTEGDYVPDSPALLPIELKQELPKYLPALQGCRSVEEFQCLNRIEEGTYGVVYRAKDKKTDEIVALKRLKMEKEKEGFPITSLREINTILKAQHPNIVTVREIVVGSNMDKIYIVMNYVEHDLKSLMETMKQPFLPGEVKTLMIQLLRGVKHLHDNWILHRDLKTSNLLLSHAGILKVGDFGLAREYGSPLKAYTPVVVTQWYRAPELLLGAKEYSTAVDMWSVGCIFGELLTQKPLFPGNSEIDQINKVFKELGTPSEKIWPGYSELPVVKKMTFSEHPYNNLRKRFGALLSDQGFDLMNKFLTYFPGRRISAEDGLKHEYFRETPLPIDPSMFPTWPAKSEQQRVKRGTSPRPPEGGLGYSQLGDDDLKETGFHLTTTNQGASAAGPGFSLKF
Briefly: Selectivity interaction (KinomeScan (DiscoverX)) EUB0000045b CDK11A. The settings on record: at 1 µM.

Test [4] deals with T3, Dual specificity protein kinase TTK (Homo sapiens) (UniProt P33981).
T3 sequence (whole entry): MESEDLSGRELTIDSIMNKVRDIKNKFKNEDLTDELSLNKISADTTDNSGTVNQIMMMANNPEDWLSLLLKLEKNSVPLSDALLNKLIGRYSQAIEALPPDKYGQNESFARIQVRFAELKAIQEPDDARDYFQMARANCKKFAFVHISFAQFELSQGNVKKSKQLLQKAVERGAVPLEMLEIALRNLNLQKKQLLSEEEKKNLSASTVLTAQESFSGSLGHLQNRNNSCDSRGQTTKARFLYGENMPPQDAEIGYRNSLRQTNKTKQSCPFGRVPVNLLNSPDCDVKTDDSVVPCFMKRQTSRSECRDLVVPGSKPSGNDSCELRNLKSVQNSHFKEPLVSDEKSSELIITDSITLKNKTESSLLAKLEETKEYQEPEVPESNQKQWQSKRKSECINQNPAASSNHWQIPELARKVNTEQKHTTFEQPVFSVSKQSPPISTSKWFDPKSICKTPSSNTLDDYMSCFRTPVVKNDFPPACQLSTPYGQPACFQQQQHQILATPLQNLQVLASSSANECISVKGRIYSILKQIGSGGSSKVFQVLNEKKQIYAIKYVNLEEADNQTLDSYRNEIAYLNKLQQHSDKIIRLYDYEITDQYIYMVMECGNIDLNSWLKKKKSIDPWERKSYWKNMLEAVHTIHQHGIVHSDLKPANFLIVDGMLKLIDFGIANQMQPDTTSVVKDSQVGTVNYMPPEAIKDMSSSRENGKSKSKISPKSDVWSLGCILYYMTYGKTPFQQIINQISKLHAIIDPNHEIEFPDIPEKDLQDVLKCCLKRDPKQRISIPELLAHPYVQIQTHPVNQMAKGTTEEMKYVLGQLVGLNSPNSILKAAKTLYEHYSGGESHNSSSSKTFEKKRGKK
Briefly: Selectivity interaction (LanthaScreen Eu Kinase Binding Assay) EUB0001632a TTK. The following applies: at 10 µM. (In general: In TR-FRET formats the signal depends on donor and acceptor labels being close together.)

Test [5] addresses Cyclin-dependent kinase 14 (Homo sapiens) (UniProt O94921). Briefly: Selectivity interaction (KinomeScan (DiscoverX)) EUB0000607a CDK14. The following applies: at 10 µM.
The target of test [6] is DNA-dependent protein kinase catalytic subunit (Homo sapiens) (UniProt P78527). Briefly: Selectivity interaction (ActivX KiNativ screen (kinase selectivity in THP-1 cell lysates)) EUB0000639a PRKDC. It is filed as subcellular. The following applies: lysate, at 0.2 µM.
Test [7] concerns the target Mitogen-activated protein kinase kinase kinase kinase 1 (Homo sapiens) (UniProt Q92918). Briefly: Selectivity interaction (ActivX KiNativ screen (kinase selectivity in THP-1 cell lysates)) EUB0000639a MAP4K1. It is filed as subcellular. The settings on record: lysate.
For test [8], the target named is Serine/threonine-protein kinase 38-like (Homo sapiens) (UniProt Q9Y2H1). Briefly: Selectivity interaction (ActivX KiNativ screen (kinase selectivity in THP-1 cell lysates)) EUB0000639a STK38L. It is filed as subcellular. The settings on record: lysate.
Serine/threonine-protein kinase 38-like (Homo sapiens), sequence (Q9Y2H1 2-464 limits assumed): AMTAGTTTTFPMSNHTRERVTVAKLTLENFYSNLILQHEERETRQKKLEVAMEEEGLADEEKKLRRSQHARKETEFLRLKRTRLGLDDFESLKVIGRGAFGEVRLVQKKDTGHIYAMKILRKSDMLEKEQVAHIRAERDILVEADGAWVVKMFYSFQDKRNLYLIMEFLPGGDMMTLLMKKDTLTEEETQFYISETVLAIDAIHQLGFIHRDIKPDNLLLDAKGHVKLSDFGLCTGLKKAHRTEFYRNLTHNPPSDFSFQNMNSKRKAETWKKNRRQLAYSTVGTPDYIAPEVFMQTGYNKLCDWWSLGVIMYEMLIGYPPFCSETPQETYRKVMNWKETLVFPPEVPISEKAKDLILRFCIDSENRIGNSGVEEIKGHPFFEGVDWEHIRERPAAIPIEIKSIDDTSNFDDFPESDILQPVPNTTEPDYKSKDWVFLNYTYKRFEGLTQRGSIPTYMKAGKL

SMILES strings stand for the structures.

Mitogen-activated protein kinase kinase kinase kinase 1 (Homo sapiens), sequence (Q92918 whole entry, looked up): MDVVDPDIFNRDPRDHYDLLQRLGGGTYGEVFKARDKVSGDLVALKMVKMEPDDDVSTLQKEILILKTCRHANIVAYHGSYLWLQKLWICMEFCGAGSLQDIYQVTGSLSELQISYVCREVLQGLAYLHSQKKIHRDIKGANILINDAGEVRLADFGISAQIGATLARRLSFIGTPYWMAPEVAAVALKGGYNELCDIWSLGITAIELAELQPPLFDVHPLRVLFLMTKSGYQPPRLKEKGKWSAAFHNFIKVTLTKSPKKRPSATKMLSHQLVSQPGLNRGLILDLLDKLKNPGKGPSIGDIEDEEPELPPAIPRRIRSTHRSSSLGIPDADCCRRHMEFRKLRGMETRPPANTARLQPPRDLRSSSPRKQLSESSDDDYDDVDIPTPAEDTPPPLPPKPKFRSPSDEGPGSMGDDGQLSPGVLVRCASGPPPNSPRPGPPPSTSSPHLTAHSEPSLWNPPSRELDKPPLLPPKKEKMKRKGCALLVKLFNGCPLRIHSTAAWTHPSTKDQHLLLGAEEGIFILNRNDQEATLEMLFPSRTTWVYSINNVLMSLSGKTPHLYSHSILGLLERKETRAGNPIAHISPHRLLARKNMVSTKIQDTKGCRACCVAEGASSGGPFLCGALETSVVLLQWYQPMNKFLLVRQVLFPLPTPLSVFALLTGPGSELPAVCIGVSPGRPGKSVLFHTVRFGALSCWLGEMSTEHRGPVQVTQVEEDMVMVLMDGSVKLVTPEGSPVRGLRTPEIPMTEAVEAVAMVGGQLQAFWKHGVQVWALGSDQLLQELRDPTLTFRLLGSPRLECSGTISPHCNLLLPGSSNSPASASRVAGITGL
Aurora kinase B, sequence (Q96GD4 whole entry): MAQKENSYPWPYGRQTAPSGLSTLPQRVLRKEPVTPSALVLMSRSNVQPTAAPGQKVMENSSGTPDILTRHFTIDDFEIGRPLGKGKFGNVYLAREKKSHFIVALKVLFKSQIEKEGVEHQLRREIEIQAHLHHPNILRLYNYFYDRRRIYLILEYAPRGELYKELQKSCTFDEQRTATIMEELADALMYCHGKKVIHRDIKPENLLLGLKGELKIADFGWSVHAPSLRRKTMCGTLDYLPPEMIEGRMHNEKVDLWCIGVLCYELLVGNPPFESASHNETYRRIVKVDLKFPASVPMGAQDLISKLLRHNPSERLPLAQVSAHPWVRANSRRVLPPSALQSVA
Cyclin-dependent kinase 14 (Homo sapiens), sequence (O94921 whole entry): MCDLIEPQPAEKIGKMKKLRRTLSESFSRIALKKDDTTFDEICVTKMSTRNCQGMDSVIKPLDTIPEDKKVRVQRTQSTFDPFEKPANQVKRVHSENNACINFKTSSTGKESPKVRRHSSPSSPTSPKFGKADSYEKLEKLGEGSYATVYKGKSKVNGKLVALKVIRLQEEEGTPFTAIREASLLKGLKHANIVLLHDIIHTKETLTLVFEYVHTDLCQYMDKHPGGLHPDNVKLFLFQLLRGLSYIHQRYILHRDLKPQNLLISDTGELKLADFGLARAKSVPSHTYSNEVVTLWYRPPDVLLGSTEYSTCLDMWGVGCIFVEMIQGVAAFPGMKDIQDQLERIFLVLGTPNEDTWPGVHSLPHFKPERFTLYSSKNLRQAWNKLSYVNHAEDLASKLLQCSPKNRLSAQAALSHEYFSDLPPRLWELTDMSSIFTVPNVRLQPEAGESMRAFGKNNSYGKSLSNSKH

As to `Nc1cnc(N2CCc3cc(S(=O)(=O)Nc4c(F)cc(Cl)cc4F)cc(N4CCCC4=O)c32)nc1` [TP-020n], the % of control in test [1] worked out at 100%.

On to `COc1cc(Nc2nc(C)cc(-c3cnn4nc(OC)ccc34)n2)cc(C(F)(F)F)c1`, for which the % of control in test [2] is 85%.

In test [3], `C=CC(=O)Nc1cc(-n2c(=O)ccc3cnc4ccc(-c5ccc(NS(C)(=O)=O)cc5)cc4c32)ccc1C` came in with a % of control of 100%.

`Cn1cc(-n2cnc3c(NCc4nc5cc(Cl)c(Cl)cc5[nH]4)nc(N4CCOCC4)nc32)cn1`: the % of inhibition in test [4] is -54.1%.

For the compound `CNC(=O)Nc1ccc(-c2nc(N3CC4CCC(C3)O4)c3cnn(C4CCC5(CC4)OCCO5)c3n2)cc1`, the % of control in test [5] was 94%.

As to `CC[C@@H]1[C@H](F)C(=O)N[C@@H]1COc1nccc2cc(C(N)=O)c(OC)cc12` [ZIMLOVISERTIB], the % of inhibition in test [6] was -5.7%; in test [7] (at 0.01 µM), 9.7%; in test [7] (at 0.04 µM), -10.3%; in test [7] (at 0.2 µM) it was -26.5%; in test [7] (at 1 µM) it was -6.5%; in test [7] (at 5 µM), -18.1%. In addition, the % of inhibition in test [8] (at 0.01 µM) is 5.2%; in test [8] (at 0.04 µM), -2%; in test [8] (at 0.2 µM), 12%; in test [8] (at 1 µM) it was 51.5%; in test [8] (at 5 µM), 82.9%.
